Experiments:
[1] = system: Gram-negative and Gram-positive bacteria commonly colonizing wounds; test: Antibacterial synergy K(Syn) of Ag and Cu compounds across bacterial strains (FIG. 3, FIG. 5); format: cell-based
Procedure: FIGS. 3A and 3B show the synergistic effect of CuO NPs and CuSO4 with Ag NPs (A) or AgNO3 (B) to a range of Gram-negative and Gram-positive bacteria commonly colonizing wounds. Bacterial suspension was incubated with Ag NPs, CuO NPs, respective ions or their combinations for 24 h, plated on agarized broth, and MBC was determined.
In order to quantify and compare the synergistic effect between different Ag and Cu compounds and among various bacterial strains, we introduced the term “Coefficient of antimicrobial synergy”, K(Syn), showing the antimicrobial efficiency of Ag compound and Cu compound combinations (mix) compared to the sum of the MBC values of individual compounds and calculated as follows: […]
In order to quantify and compare the synergistic effect between different Ag NPs and Copper compounds among various bacterial strains, we introduced the term “Coefficient of antibacterial synergy”, K(Syn), showing the antimicrobial efficiency of Ag- and copper compound combinations (mix) compared to the sum of the MBC values of individual Ag- and Cu compounds and calculated as follows: […]
Bacterial suspensions were incubated with Ag NPs, CuO NPs, respective ions or their combinations for 24 h, plated on agarized broth, and MBC was determined. […]

E. coli K-12 (G−) = test: MBC of Ag NPs, Cu compounds and combinations, 24 h incubation, plated on agarized broth; format: cell-based, Escherichia coli
E. coli ESBL (G−) = test: as above; format: cell-based, Escherichia coli
P. aeruginosa PAO1 (G−) = test: as above; format: cell-based, Pseudomonas aeruginosa
[2] = system: S. aureus ATCC 25923 (G+); test: as above; format: cell-based, Staphylococcus aureus
[3] = system: E. faecalis ATCC 29212 (G+); test: as above; format: cell-based, Enterococcus faecalis
[4] = system: S. dysgalacticae DSM 23147 (G+); test: as above; format: cell-based

Row | SMILES | synergistic effect with Cu compounds compared with Ag NPs ([1]; ionic silver used instead of Ag NPs (FIG. 3B)) | K (Syn) (E. coli K-12 (G−); E. coli K-12, Cu compound + Ag NPs) | MBC (CuX) in combination (E. coli K-12 (G−); E. coli K-12, Cu compound in combination with Ag NPs) [µg/mL] | MBC alone (E. coli K-12 (G−); E. coli K-12, compound alone) [µg/mL] | K (Syn) (E. coli ESBL (G−); Cu compound + Ag NPs) | MBC (CuX) in combination (E. coli ESBL (G−); Cu compound in combination with Ag NPs) [µg/mL] | MBC alone (E. coli ESBL (G−); compound alone) [µg/mL] | K (Syn) (P. aeruginosa PAO1 (G−); P. aeruginosa PAO1, Cu compound + Ag NPs) | MBC (CuX) in combination (P. aeruginosa PAO1 (G−); P. aeruginosa PAO1, Cu compound in combination with Ag NPs) [µg/mL] | MBC alone (P. aeruginosa PAO1 (G−); P. aeruginosa PAO1, compound alone) [µg/mL] | K (Syn) ([2]; S. aureus ATCC 25923, Cu compound + Ag NPs) | MBC (CuX) in combination ([2]; S. aureus ATCC 25923, Cu compound in combination with Ag NPs) [µg/mL] | MBC alone ([2]; S. aureus ATCC 25923, compound alone) [µg/mL] | K (Syn) ([3]; E. faecalis ATCC 29212, Cu compound + Ag NPs) | MBC (CuX) in combination ([3]; E. faecalis ATCC 29212, Cu compound in combination with Ag NPs) [µg/mL] | MBC alone ([3]; E. faecalis ATCC 29212, compound alone) [µg/mL] | K (Syn) ([4]; S. dysgalacticae DSM 23147, Cu compound + Ag NPs) | MBC (CuX) in combination ([4]; S. dysgalacticae DSM 23147, Cu compound in combination with Ag NPs) [µg/mL] | MBC alone ([4]; S. dysgalacticae DSM 23147, compound alone) [µg/mL] | synergy with Ag NPs, K(Syn), ranking among Cu compounds ([1]; all tested bacterial strains (FIG. 3A))
1 | O=[N+]([O-])[O-].[Ag+] [AgNO3, reference compound] | considerably lower | – | – | – | – | – | – | – | – | – | – | – | – | – | – | – | – | – | – | –
2 | O=S(=O)([O-])[O-].[Cu+2] [CuSO4] | – | 5.055 ± 0.383 | 22.5 ± 16.3 | 217.6 ± 72.8 | 4.727 ± 0.63 | 25 ± 0 | 200 ± 0 | 2.783 ± 0.687 | 20 ± 6.85 | 720 ± 178.9 | 3.659 ± 1.083 | 16.25 ± 8.39 | 90 ± 22.36 | 4.254 ± 0.977 | 20.83 ± 7.22 | 200 ± 0 | 3.909 ± 0.832 | 12.5 ± 0 | 133.3 ± 57.7 | highest

Source: US20240041047A1, “ENHANCED ANTIMICROBIAL EFFICACY (SYNERGY) OF SILVER AND COPPER COMPOUNDS AND MEDICAL USE OF THEIR COMBINATIONS” (Nanordica Medical OÜ, priority 2021, published 2024)
